Measured values reported in PMC8698759, “Gold(I) Complexes Bearing Alkylated 1,3,5-Triaza-7-phosphaadamantane Ligands as Thermoresponsive Anticancer Agents in Human Colon Cells” (Biomedicines, 2021).
Like-named read-outs stand apart in the source and are kept apart here.

Key:
Caco-2/TC7 cells = experiment: MTT cytotoxicity / antiproliferative assay on Caco-2/TC7 cells; type: cell-based, human
Experimental: Human fibroblast cells were kindly provided by Dr. Julio Montoya (Unidad de Bioquímica, Facultad de Veterinaria, Universidad de Zaragoza, Spain). Caco-2 cells (passages 40–70) and fibroblasts (passages 10–30) were maintained in a humidified atmosphere of 5% CO2 at 37 °C. Cells were grown in Dulbecco’s Modified Eagles medium (DMEM) (Gibco Invitrogen, Paisley, UK) supplemented with 20% fetal bovine serum (FBS), 1% non-essential amino acids, 1% penicillin (1000 U/mL), 1% streptomycin (1000 μg/mL) and 1% amphotericin (250 U/mL). […] Caco-2 cells were sub-cultured on 25 cm^2 plastic flasks at a density of 1.2 × 10^4 cells/cm^2, while fibroblasts were sub-cultured on 75 cm^2 plastic flasks at a density of 1 × 10^4 cells/cm^2. Culture medium was replaced every 2 days.
(§1) Gold complex was diluted in dimethyl sulfoxide (DMSO) to a stock solution at 20 mM and then re-diluted to a working solution at 2.5 mM before diluting it in cell culture medium to treat cells at desired concentrations.
The influence of hyperthermia was studied by incubating cells at 40 °C for 1 h immediately after treating them with the gold complexes.
For cytotoxicity screening assays, Caco-2 cells were seeded in 96-well plates at a density of 4 × 10^3 cells/well. Culture medium was replaced with medium containing drug panel 24 h post-seeding and cells were incubated for 72 h. In fibroblasts, culture medium containing metal gold complexes was added 10 days post-seeding. Antiproliferative effect was measured with MTT assay as previously described by Mármol et al.. […] To determine the selectivity index (SI) the IC50 value in fibroblasts was divided by IC50 value in Caco-2, obtaining a ratio cancerous/normal cells toxicity.

Human fibroblast cells = experiment: MTT cytotoxicity assay on fibroblasts; type: cell-based; settings: for fibroblasts viability when treated at the IC50 value in Caco-2: 3a 2.5 µM, 3b 5.1 µM, 2a 12.3 µM, 2b 10.5 µM; for IC50: MTT, mean ± SE
Experimental: Human Caco-2 cell line (TC7 clone) was kindly provided by Dr. Edith Brot-Laroche (Université Pierre et Marie Curie-Paris 6, UMR S 872, Les Cordeliers, France). Human fibroblast cells were kindly provided by Dr. Julio Montoya (Unidad de Bioquímica, Facultad de Veterinaria, Universidad de Zaragoza, Spain). Caco-2 cells (passages 40–70) and fibroblasts (passages 10–30) were maintained in a humidified atmosphere of 5% CO2 at 37 °C. Cells were grown in Dulbecco’s Modified Eagles medium (DMEM) (Gibco Invitrogen, Paisley, UK) supplemented with 20% fetal bovine serum (FBS), 1% non-essential amino acids, 1% penicillin (1000 U/mL), 1% streptomycin (1000 μg/mL) and 1% amphotericin (250 U/mL). The cells were passaged enzymatically with 0.25% trypsin-1 mM EDTA. Caco-2 cells were sub-cultured on 25 cm^2 plastic flasks at a density of 1.2 × 10^4 cells/cm^2, while fibroblasts were sub-cultured on 75 cm^2 plastic flasks at a density of 1 × 10^4 cells/cm^2. Culture medium was replaced every 2 days.
as §1
For cytotoxicity screening assays, Caco-2 cells were seeded in 96-well plates at a density of 4 × 10^3 cells/well. Culture medium was replaced with medium containing drug panel 24 h post-seeding and cells were incubated for 72 h. In fibroblasts, culture medium containing metal gold complexes was added 10 days post-seeding. Antiproliferative effect was measured with MTT assay as previously described by Mármol et al.. Absorbance at 540/620 nm was measured with SPECTROstar Nano (BMG Labtech). To determine the selectivity index (SI) the IC50 value in fibroblasts was divided by IC50 value in Caco-2, obtaining a ratio cancerous/normal cells toxicity.

[1] = Distribution coefficient (logD7.4), shake-flask n-octanol/buffered water; type: physicochemical; settings: n-octanol/phosphate buffered saline pH 7.4, shake-flask
Experimental: The n-octanol-water coefficients of the phosphane derivatives were determined as previously reported using a shake-flask method. Briefly: Buffered-saline distilled water (100 mL, phosphate buffer [PO4^3−] = 10 mM, [NaCl] = 0.15 M, pH 7.4) and n-octanol (100 mL) were shaken together for 72 h to allow saturation of both phases. 1 mg of the complexes was dissolved in 5 mL of the aqueous phase and 5 mL of the organic phase were added, mixing for 10 min. The concentration of the complexes in the organic and aqueous phases were then determined using UV absorbance spectroscopy. LogD7.4 = log{[compound(organic phase)]/[compound(aqueous phase)]}.
The lipophilicity can be measured by the partition coefficient water/n-octanol, logD, by experimental procedures such as the shake flask method, which affords the distribution of the drug between an equal amount of n-octanol and water (or buffered aqueous solution).

Recombinant Human TrxR1 = biological target: T1, Recombinant Human TrxR1 (Homo sapiens, UniProt Q16881); experiment: Thioredoxin reductase 1 (TrxR1) activity assay; type: biochemical; settings: auranofin 25 µM; 3a and 3b at IC50 concentrations
T1 construct: purchased Sigma-Aldrich SRP6081
T1 sequence (Q16881 151-649 limits assumed): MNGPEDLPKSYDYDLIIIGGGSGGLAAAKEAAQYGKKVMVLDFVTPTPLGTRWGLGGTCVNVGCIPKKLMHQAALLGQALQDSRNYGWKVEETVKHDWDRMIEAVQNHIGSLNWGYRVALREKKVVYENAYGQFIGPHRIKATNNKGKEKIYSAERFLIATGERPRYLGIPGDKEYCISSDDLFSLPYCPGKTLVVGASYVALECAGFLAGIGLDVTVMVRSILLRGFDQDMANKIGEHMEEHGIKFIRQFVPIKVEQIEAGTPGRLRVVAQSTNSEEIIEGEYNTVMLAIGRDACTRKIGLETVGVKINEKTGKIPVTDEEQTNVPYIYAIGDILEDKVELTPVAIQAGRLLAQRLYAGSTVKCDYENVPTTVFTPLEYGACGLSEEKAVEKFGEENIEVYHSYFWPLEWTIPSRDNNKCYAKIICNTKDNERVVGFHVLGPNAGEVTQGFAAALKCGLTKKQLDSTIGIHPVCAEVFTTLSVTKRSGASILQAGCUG
Experimental: Recombinant Human TrxR1 (Sigma-Aldrich SRP6081, St. Louis, MO, USA) was incubated in a 96 well plate with different concentration of Au complex previously dissolved in 25 μL of PBS at pH 7.4. The cell solution was incubated in shake motion for 5 min at 37 °C. After incubation time, procedure in Thioredoxin Reductase Assay Kit (Sigma-Aldrich CS0170, St. Louis, MO, USA) was followed. Finally, reaction was started by adding 6 μL DNTB and absorbance at 405 nm was recorded every 30 s for 22 min as a measure of Thioredoxin Reductase Activity.

[2] = Homo sapiens, Caco2/TC7, read-out: IC50 Caco-2/TC7 40 °C
[3] = 72 h, MTT, 37 °C, mean ± SE, read-out: IC50 Caco-2/TC7 37 °C
[4] = read-out: IC50 Caco-2/TC7 40 °C, 72 h, MTT, 1 h at 40 °C immediately after treatment (hyperthermia), mean ± SE

SMILES | IC50 (Caco-2/TC7 cells) [µM] | IC50 (Caco-2/TC7 cells; [2]) [µM] | fibroblasts viability when treated at the IC50 value in Caco-2 (Human fibroblast cells) | IC50 (Human fibroblast cells) [µM] | logD7.4 [1] | IC50 (Caco-2/TC7 cells; [3]) [µM] | IC50 (Caco-2/TC7 cells; [4]) [µM] | Selectivity Index (SI) (Human fibroblast cells; IC50 fibroblasts/IC50 Caco-2) | TrxR1 activity related to control (Recombinant Human TrxR1)
FC(F)(F)C(F)(F)C(F)(F)C(F)(F)C(F)(F)C(F)(F)CC[N+]12CN3CN(CP(C3)C1)C2 [Lb, [PTA-CH2CH2(CF2)5CF3]TfO] | 27.2 ± 7.56 | 24 ± 6.6 | – | – | – | – | – | – | –
CCCCCCCC[N+]12CN3CN(CP(C3)C1)C2 [La, [PTA-CH2(CH2)6CH3]I] | 49.32 ± 0.02 | 47.1 ± 0.92 | – | – | – | – | – | – | –
FC(F)(F)C(F)(F)C(F)(F)C(F)(F)C(F)(F)C(F)(F)CC[N+]12CN3CN(C1)C[P+]([Au-2]([Cl])[P+]14CN5CN(C[N+](CCC(F)(F)C(F)(F)C(F)(F)C(F)(F)C(F)(F)C(F)(F)F)(C5)C1)C4)(C3)C2.O=S(=O)([O-])C(F)(F)F.O=S(=O)([O-])C(F)(F)F [Complex 2b, [AuCl(PTA-CH2CH2(CF2)5CF3)2](TfO)2] | – | – | nearly two-fold reduction in the viability of fibroblasts | 11.6 ± 1.05 | 0.82 | 10.7 ± 0.6 | 9 ± 0.39 | – | –
CCCCCCCC[N+]12CN3CN(C1)C[P+]([Au-2]([Cl])[P+]14CN5CN(C[N+](CCCCCCCC)(C5)C1)C4)(C3)C2.[I-].[I-] [Complex 2a, [AuCl(PTA-CH2(CH2)6CH3)2]I2] | – | – | nearly two-fold reduction in the viability of fibroblasts | 13.5 ± 0.97 | −0.12 | 12.3 ± 1.18 | 10.4 ± 0.51 | 1.09 | –
CC(=O)OC[C@H]1O[C@@H]([S-])[C@H](OC(C)=O)[C@@H](OC(C)=O)[C@@H]1OC(C)=O.CCP(CC)CC.[Au+] [auranofin, reference compound] | – | – | – | – | – | – | – | – | Inhibitory effect
FC(F)(F)C(F)(F)C(F)(F)C(F)(F)C(F)(F)C(F)(F)CC[N+]12CN3CN(C1)C[PH]([Au][Cl])(C3)C2.O=S(=O)([O-])C(F)(F)F [Complex 1b, [AuCl(PTA-CH2CH2(CF2)5CF3)]TfO] | – | – | – | – | 0.63 | 5.98 ± 1.8 | 4.46 ± 0.79 | – | –
